“And” between values parts separate entries of the source, which are not always exact repeats. Identical values can stand only once.
Columns and labels:
[1] = test system: BT-549; details: 72 h
Summary of the method: (§1)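 Seeding of breast cancer cell lines (20 µl suspension) was done into 384-well plates pre-loaded with compound at 5 concentrations, 10-fold apart, covering a compound-specific 10,000-fold range. The plates were incubated for 72 h, read for CellTox Green fluorescence (485/520 nm), and then read for CellTiter-Glo luminescence after 10 min at room temperature. Every plate was normalised to 0.1 % DMSO and a positive kill control. Curve fitting gave the EC50, censored at the top concentration.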

[2] = test system: CAL-120; details: 72 h
Summary of the method: as §1

[3] = test system: Hs578T; details: 72 h
Summary of the method: as §1

[4] = test system: MDA-MB-453; details: 72 h
Summary of the method: as §1

[5] = test system: MDA-MB-231; details: 72 h
Summary of the method: as §1

[6] = test system: CAL-85-1; details: 72 h
Summary of the method: as §1

[7] = test system: MCF-10A; details: 72 h
Summary of the method: as §1

[8] = test system: CAL-51; details: 72 h
Summary of the method: as §1

[9] = test system: MDA-MB-453; test: normalised viability (% of control), CellTiter-Blue; higher = more viable cells (about 100 = DMSO control); details: incubation time: 72 h
Protocol: (§2)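 DSRT, CellTiter-Blue viability, 72 h incubation. Signal is normalised to DMSO and benzethonium chloride controls. Value is the normalised response at dose 6.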

[10] = test system: HDQ-P1; test: as above; details: incubation time: 72 h
Protocol: as §2

[11] = test system: DU-4475; test: as above; details: incubation time: 72 h
Protocol: as §2

[12] = test system: CAL-85-1; test: as above; details: incubation time: 72 h
Protocol: as §2

[13] = test system: CAL-148; test: as above; details: incubation time: 72 h
Protocol: as §2

[14] = test system: CAL-51; test: as above; details: incubation time: 72 h
Protocol: as §2

[15] = test system: CAL-120; test: as above; details: incubation time: 72 h
Protocol: (§3)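 DSRT, CellTiter-Blue viability, 72 h incubation. Signal is normalised to DMSO and benzethonium chloride controls. Value is the normalised response at dose 3.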

[16] = test system: Hs578T; test: as above; details: incubation time: 72 h
Protocol: as §3

[17] = test system: MDA-MB-453; test: as above; details: incubation time: 72 h; remark: listed apart in the source
Protocol: as §3

[18] = test system: MFM-223; test: as above; details: incubation time: 72 h
Protocol: as §3

[19] = test system: DU-4475; test: as above; details: incubation time: 72 h; remark: listed apart in the source
Protocol: as §3

[20] = test system: BT-549; test: as above; details: incubation time: 72 h
Protocol: as §3

[21] = test system: CAL-148; test: as above; details: incubation time: 72 h; remark: listed apart in the source
Protocol: as §3

[22] = test system: MDA-MB-468; test: as above; details: incubation time: 72 h
Protocol: as §3

[23] = test system: MDA-MB-453; test: as above; details: incubation time: 72 h; remark: listed apart in the source
Protocol: (§4)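 DSRT, CellTiter-Blue viability, 72 h incubation. Signal is normalised to DMSO and benzethonium chloride controls. Value is the normalised response at dose 7.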

[24] = test system: HDQ-P1; test: as above; details: incubation time: 72 h; remark: listed apart in the source
Protocol: as §4

[25] = test system: DU-4475; test: as above; details: incubation time: 72 h; remark: listed apart in the source
Protocol: as §4

[26] = test system: CAL-85-1; test: as above; details: incubation time: 72 h; remark: listed apart in the source
Protocol: as §4

[27] = test system: CAL-148; test: as above; details: incubation time: 72 h; remark: listed apart in the source
Protocol: as §4

[28] = test system: CAL-51; test: as above; details: incubation time: 72 h; remark: listed apart in the source
Protocol: as §4

[29] = test system: MDA-MB-453; details: 72 h; remark: listed apart in the source
Summary of the method: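 Breast cancer cell lines in 20 µl suspension were seeded onto 384-well plates pre-loaded with compound dissolved in 5 µl medium, then incubated 72 h. For viability, 2.5 µl CellTiter-Blue was added for 2 h at 37 °C and fluorescence read at 560/590 nm. Each plate was normalised to vehicle and a positive kill control and checked by Z'-factor. EC50 comes from the fitted percent-inhibition dose-response curve, censored at the highest concentration; rows with zero drug sensitivity score were dropped.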

[30] = test system: HCC1937; details: 72 h
Summary of the method: as §1

[31] = test system: BT-474; details: 72 h
Summary of the method: as §1

[32] = test system: SK-BR-3; details: 72 h
Summary of the method: as §1

[33] = test system: MDA-MB-468; details: 72 h
Summary of the method: as §1

[34] = test system: MDA-MB-436; details: 72 h
Summary of the method: as §1

[35] = test system: MDA-MB-231; test: normalised viability (% of control), CellTiter-Blue; higher = more viable cells (about 100 = DMSO control); details: 10 nM; incubation time: 72 h
Protocol: as §3

## Nc1ncnc2c1c(COc1cccc(Cl)c1)nn2C1CCOCC1
[1]
  EC50, CellTiter-Glo: > 10000 nM

## COc1ccccc1S(=O)(=O)Nc1ccc2c(c1)CN(C)C(=O)N2 [PFI-1]
[2]
  EC50, CellTiter-Glo: 2570 nM
[3]
  EC50, CellTiter-Glo: 1810 nM
[4]
  EC50, CellTiter-Glo: 1980 nM
[5]
  EC50, CellTiter-Glo: 1610 nM
[6]
  EC50, CellTiter-Glo: 8460 nM
[1]
  EC50, CellTiter-Glo: 1350 nM
[7]
  EC50, CellTiter-Glo: 4160 nM
[8]
  EC50, CellTiter-Glo: 6310 nM

## Cc1ccc(NC(=O)c2ccc(CN3CCN(C)CC3)cc2)cc1Nc1nccc(-c2cccnc2)n1 [Imatinib]
[9]; 300 nM
  normalised viability: 86.5% and 88.3%
[10]; 300 nM
  normalised viability: 74.9% and 72.5%
[11]; 300 nM
  normalised viability: 97.8% and 89.4%
[12]; 300 nM
  normalised viability: 101% and 94.4%
[13]; 300 nM
  normalised viability: 83.5% and 104%
[14]; 300 nM
  normalised viability: 106% and 102%
[15]; 100 nM
  normalised viability: 87.8% and 94.7%
[16]; 100 nM
  normalised viability: 95.2% and 103%
[17]; 10 nM
  normalised viability: 104% and 94.3%
[18]; 100 nM
  normalised viability: 94.8% and 92.4%
[19]; 10 nM
  normalised viability: 106% and 95.3%
[20]; 100 nM
  normalised viability: 102% and 109%
[21]; 10 nM
  normalised viability: 84.3% and 89%
[22]; 100 nM
  normalised viability: 99.2% and 98%
[23]; 1000 nM
  normalised viability: 110% and 92.5%
[24]; 1000 nM
  normalised viability: 106% and 122%
[25]; 1000 nM
  normalised viability: 115% and 108%
[26]; 1000 nM
  normalised viability: 92.6% and 82.5%
[27]; 1000 nM
  normalised viability: 82.7% and 100%
[28]; 1000 nM
  normalised viability: 106% and 102%
[29]
  EC50, CellTiter-Blue viability: 4540 nM
[4]
  EC50, CellTiter-Glo: > 10000 nM
[8]
  EC50, CellTiter-Glo: 4170 nM

## NS(=O)(=O)OC[C@@H]1C[C@@H](n2ccc3c(N[C@H]4CCc5ccccc54)ncnc32)C[C@@H]1O [Pevonedistat]
[2]
  EC50, CellTiter-Glo: 448 nM
[3]
  EC50, CellTiter-Glo: 679 nM
[4]
  EC50, CellTiter-Glo: 780 nM
[5]
  EC50, CellTiter-Glo: 953 nM
[30]
  EC50, CellTiter-Glo: 2940 nM
[6]
  EC50, CellTiter-Glo: 191 nM
[1]
  EC50, CellTiter-Glo: 168 nM
[31]
  EC50, CellTiter-Glo: 769 nM
[8]
  EC50, CellTiter-Glo: 91.2 nM
[32]
  EC50, CellTiter-Glo: 25.7 nM
[33]
  EC50, CellTiter-Glo: 68.5 nM
[34]
  EC50, CellTiter-Glo: 294 nM

## CO[C@H]1C[C@@H]2CC[C@@H](C)[C@@](O)(O2)C(=O)C(=O)N2CCCC[C@H]2C(=O)O[C@H]([C@H](C)C[C@@H]2CC[C@@H](OCCO)[C@H](OC)C2)CC(=O)[C@H](C)/C=C(\C)[C@@H](O)[C@@H](OC)C(=O)[C@H](C)C[C@H](C)/C=C/C=C/C=C/1C [Everolimus]
[9]; 30 nM
  normalised viability: 30.5% and 29.2%
[10]; 30 nM
  normalised viability: 38.7% and 49%
[11]; 30 nM
  normalised viability: 50.6% and 60.2%
[12]; 30 nM
  normalised viability: 61.6% and 56.1%
[13]; 30 nM
  normalised viability: 42.9% and 41.6%
[14]; 30 nM
  normalised viability: 39.1% and 41.5%
[15]; 10 nM
  normalised viability: 55.3% and 43%
[16]; 10 nM
  normalised viability: 42.7% and 48.8%
[17]; 1 nM
  normalised viability: 44.9% and 39.9%
[35]
  normalised viability: 92.7% and 69.3%
[18]; 10 nM
  normalised viability: 55.1% and 49%
[19]; 1 nM
  normalised viability: 96.6% and 83.4%
[20]; 10 nM
  normalised viability: 66.5% and 53.2%
[21]; 1 nM
  normalised viability: 65.8% and 59.4%
[22]; 10 nM
  normalised viability: 84.1% and 59.7%
[23]; 100 nM
  normalised viability: 29.1% and 22.3%
[24]; 100 nM
  normalised viability: 72.6% and 57.6%
[25]; 100 nM
  normalised viability: 49.9% and 56%
[26]; 100 nM
  normalised viability: 61.3% and 49.3%
[27]; 100 nM
  normalised viability: 42% and 40.4%
[28]; 100 nM
  normalised viability: 36.9% and 38%
[29]
  EC50, CellTiter-Blue viability: 0.4 nM
[2]
  EC50, CellTiter-Glo: 0.67 nM
[3]
  EC50, CellTiter-Glo: 0.18 nM
[4]
  EC50, CellTiter-Glo: 1.65 nM
[30]
  EC50, CellTiter-Glo: 0.24 nM
[6]
  EC50, CellTiter-Glo: 0.22 nM
[1]
  EC50, CellTiter-Glo: 0.13 nM
[31]
  EC50, CellTiter-Glo: 4.76 nM
[8]
  EC50, CellTiter-Glo: 0.67 nM
[32]
  EC50, CellTiter-Glo: 0.49 nM
[33]
  EC50, CellTiter-Glo: 0.13 nM
[34]
  EC50, CellTiter-Glo: 0.76 nM
